# Test results from PubChem BioAssay AID2060489 (Molecular Pharmacology Branch, DTP, NCI, 2025).
# Values joined by “and” are separate entries in the source; they are usually repeats but may differ in a detail not shown here. Equal entries are not always repeated.
# System: 922993-354-T-J3-PDC complex spheroids, viability
# Experiment: Anticancer human tumor 922993-354-T-J3-PDC patient-derived endometrial carcinoma cell line growth inhibition [GQUAD]
# Conditions: for viability, T/C: stronger effect = lower value
# Excerpt: DNA G-quadruplex Stabilizer Agents in Combinations in Complex Spheroids
# A high-throughput screen of multi-cell type tumor spheroids was designed to identify active combinations of DNA G-quadruplex stabilizer agents and targeted small molecules. Complex spheroids include a stromal component modeled by human endothelial cells (HUVEC) and fibroblasts modeled by human mesenchymal stem cells (MSCs). The concentration ranges selected for each drug and investigational agent were based upon clinically achievable concentrations if the clinical Cmax of the agent was known.
# Compounds. The drugs and investigational agents: pidnarulex (CX-5461; NSC782164), APTO-253 (NSC789042), BRACO-19 (NSC847499), peposertib (NSC802822), ceralasertib (NSC780249), elimusertib (NSC800525), camonsertib (NSC841442), AZD-1390 (NSC803789), olaparib (NSC753686), talazoparib (NSC767125), ART-558 (NSC835418), sotorasib (NSC818433), MRTX-1133 (NSC836407), SN-38 (NSC673596), topotecan (NSC609699), etoposide (NSC141540), doxorubicin (NSC123127), gemcitabine (NSC613327), 5-fluorouracil (NSC19893), paclitaxel (NSC125973), vemurafenib (NSC761431), panobinostat (NSC761190), R-306465 (JNJ-16241199; NSC773264), adavosertib (NSC754352), TP-3654 (NSC805149), carboplatin (NSC241240), KSQ-4279 (NSC840948), and staurosporine (NSC755774) were obtained from the National Cancer Institute (NCI) Developmental Therapeutics Program Chemical Repository (34). The FDA-approved anticancer drug set is available from the NCI Developmental Therapeutics Program. […] The stock solutions were prepared in dimethyl sulfoxide (DMSO, Sigma-Aldrich, St. Louis, MO, cat. D2650) at 800-fold the tested concentration and stored at -70 degrees C prior to their use. All drugs and investigational agents were tested over a range starting from a high concentration at or near the clinical Cmax and decreasing in half-log increments. If the clinical Cmax for an agent had not been determined, the highest concentration tested was 10 microM.
# 2.3 Cell Culture. All cells were maintained in an incubator at 37 degrees C and 5% CO2 with 95% humidity. The PDC lines were cultured according to standard operating procedures established by the NCI PDMR. All PDCs were thawed and cultured in Matrigel-coated flasks prepared with a working solution of 1X Ham's F-12 nutrient mix, without supplementation (Invitrogen, cat. 11765054), 100 U/mL penicillin-streptomycin (Invitrogen, cat. 15140122), and 2.5% Matrigel (Corning Inc., cat. 354248) for the first three passages. The 857933-349-R-J2-PDC line was cultured in 6C/Colon 1B media, which includes advanced DMEM/F-12 (Thermo Fisher Scientific, cat. 12634028), 10 mM HEPES (Thermo Fisher Scientific, cat. 15630080), 1X GlutaMAX supplement (Thermo Fisher Scientific, cat. 35050061), 0.1 mg/mL primocin (InvivoGen, cat. ant-pm-2), 10% defined fetal bovine serum, heat inactivated (HyClone Laboratories Inc., cat. SH30070.03HI), 50% L-WRN conditioned media (ATCC, cat. CRL-3276), 1.25 mM N-Acetyl-L-cysteine (Sigma-Aldrich, cat. A9165), 10 mM nicotinamide (Sigma-Aldrich, cat. N0636), 1X B-27 supplement (Thermo Fisher Scientific, cat. 17504044), 1X N-2 supplement (Thermo Fisher Scientific, cat. 17502048), 10 microM Y-27632 dihydrochloride (Tocris Bioscience, cat. 1254), and 50 ng/mL human EGF recombinant protein (Thermo Fisher Scientific, cat. PHG0311). The 485176-168-R4-J1-PDC line was cultured in Panc media, which includes all 6C/Colon 1B media components plus 100 ng/mL human FGF-10 (Thermo Fisher Scientific, cat. 100-26), 500 nM SB-431542 (Selleckchem, cat. S1067), and gastrin (Tocris, cat. 3006).
# […]
# 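Also: spheroids exposed to compounds for seven days.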
# 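For viability, T/C in this document: 100% = DMSO vehicle control viability.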
smiles,measurement,setting,value
Cn1ncnc1[C@H]1c2n[nH]c(=O)c3cc(F)cc(c23)N[C@@H]1c1ccc(F)cc1 + CN(C)c1ccc(Nc2c3ccc(NC(=O)CCN4CCCC4)cc3nc3cc(NC(=O)CCN4CCCC4)ccc23)cc1,IC50,"curve of first compound, second compound 0.0316 µM",> 316 nM
same,IC50,"curve of first compound, second compound 0.1 µM",> 316 nM
same,IC50,"curve of first compound, second compound 0.316 µM",222 nM
same,IC50,"curve of first compound, second compound 1 µM",> 316 nM
same,IC50,"curve of first compound, second compound 3.16 µM",> 316 nM
same,IC50,"curve of first compound, second compound 10 µM",> 316 nM
same,"viability, T/C","second compound 0.0316 µM, first compound 0.000999 µM",98.4%
same,"viability, T/C","second compound 0.0316 µM, first compound 0.00316 µM",83.2%
same,"viability, T/C","second compound 0.0316 µM, first compound 0.00999 µM",68.9%
same,"viability, T/C","second compound 0.0316 µM, first compound 0.0316 µM",79.6%
same,"viability, T/C","second compound 0.0316 µM, first compound 0.0999 µM",95.2%
same,"viability, T/C","second compound 0.0316 µM, first compound 0.316 µM",60.4%
same,"viability, T/C","second compound 0.1 µM, first compound 0.000999 µM",111%
same,"viability, T/C","second compound 0.1 µM, first compound 0.00316 µM",93.7%
same,"viability, T/C","second compound 0.1 µM, first compound 0.00999 µM",98.1%
same,"viability, T/C","second compound 0.1 µM, first compound 0.0316 µM",90.1%
same,"viability, T/C","second compound 0.1 µM, first compound 0.0999 µM",91.8%
same,"viability, T/C","second compound 0.1 µM, first compound 0.316 µM",55.4%
same,"viability, T/C","second compound 0.316 µM, first compound 0.000999 µM",97.4%
same,"viability, T/C","second compound 0.316 µM, first compound 0.00316 µM",85.7%
same,"viability, T/C","second compound 0.316 µM, first compound 0.00999 µM",91.7%
same,"viability, T/C","second compound 0.316 µM, first compound 0.0316 µM",111%
same,"viability, T/C","second compound 0.316 µM, first compound 0.0999 µM",84.4%
same,"viability, T/C","second compound 0.316 µM, first compound 0.316 µM",34.7%
same,"viability, T/C","second compound 1 µM, first compound 0.000999 µM",93.6%
same,"viability, T/C","second compound 1 µM, first compound 0.00316 µM",108%
same,"viability, T/C","second compound 1 µM, first compound 0.00999 µM",96%
same,"viability, T/C","second compound 1 µM, first compound 0.0316 µM",92.1%
same,"viability, T/C","second compound 1 µM, first compound 0.0999 µM",109%
same,"viability, T/C","second compound 1 µM, first compound 0.316 µM",60.1%
same,"viability, T/C","second compound 3.16 µM, first compound 0.000999 µM",78%
same,"viability, T/C","second compound 3.16 µM, first compound 0.00316 µM",83.5%
same,"viability, T/C","second compound 3.16 µM, first compound 0.00999 µM",109%
same,"viability, T/C","second compound 3.16 µM, first compound 0.0316 µM",106%
same,"viability, T/C","second compound 3.16 µM, first compound 0.0999 µM",105%
same,"viability, T/C","second compound 3.16 µM, first compound 0.316 µM",72.2%
same,"viability, T/C","second compound 10 µM, first compound 0.000999 µM",108%
same,"viability, T/C","second compound 10 µM, first compound 0.00316 µM",118%
same,"viability, T/C","second compound 10 µM, first compound 0.00999 µM",123%
same,"viability, T/C","second compound 10 µM, first compound 0.0316 µM",107%
same,"viability, T/C","second compound 10 µM, first compound 0.0999 µM",98.5%
same,"viability, T/C","second compound 10 µM, first compound 0.316 µM",83%
O=c1[nH]cc(F)c(=O)[nH]1,"viability, T/C",compound 0.0316 µM,104% and 107% and 113%
same,"viability, T/C",compound 0.1 µM,98.3% and 97.9% and 83.3%
same,"viability, T/C",compound 0.316 µM,99.5% and 94.9% and 75%
same,"viability, T/C",compound 1 µM,76% and 72.9% and 90.1%
same,"viability, T/C",compound 3.16 µM,81.2% and 74.1% and 57%
same,"viability, T/C",compound 10 µM,47.9% and 65.3% and 16.6%
same,IC50,curve of compound,> 10000 nM and 3850 nM
COc1cc(C2c3cc4c(cc3C(OC3OC5COC(C)OC5C(O)C3O)C3COC(=O)C23)OCO4)cc(OC)c1O (stereo unspecified),"viability, T/C",compound 0.0316 µM,88.4% and 94.8% and 88.6%
same,"viability, T/C",compound 0.1 µM,89% and 80.4% and 92%
same,"viability, T/C",compound 0.316 µM,76.1% and 86.3% and 92.8%
same,"viability, T/C",compound 1 µM,89.5% and 99.4% and 80.7%
same,"viability, T/C",compound 3.16 µM,74.5% and 95.4% and 76.1%
same,"viability, T/C",compound 10 µM,56.4% and 62.6% and 37%
same,IC50,curve of compound,> 10000 nM and 6750 nM
